The results in this text go back to article PMC10179080, “In Vivo and In Vitro Characterization of Close Analogs of Compound KA-11, a New Antiseizure Drug Candidate” (International Journal of Molecular Sciences, 2023).

Data set [1] is described as follows: Stability in PBS buffer during PAMPA incubation. The class given is physicochemical. The following applies: 5 h incubation in PAMPA plate, PBS pH 7.4, RT. Background: In PAMPA a lipid-coated filter parts donor from acceptor wells.
In data set [2] the test system is tonic–clonic seizures in mice. Kind of data set: Maximal electroshock seizure (MES) test. Format: in vivo. The method, then: (§1) The experiments were conducted on adult male albino Swiss mice weighing 22–26 g. The animals were kept in colony cages under standardized laboratory conditions: natural light–dark cycle 12/12 h, temperature 20–24 °C, air humidity 45–65% and free access to tap water and food (chow pellets). After 7 days of adaptation to laboratory conditions, the animals were randomly assigned to experimental groups consisting of 8 mice. The experimental procedures described herein were approved by the Local Ethics Committee in Lublin, Poland (approval numbers: 71/2020 and 13/2021), and were conducted in accordance with EU Directive 2010/63/EU for animal experiments. All efforts were made to minimize animal suffering and to use only the number of animals necessary to produce reliable scientific data according to the 3Rs rule.
All substances (except PTZ and tetracaine hydrochloride dissolved in water for injections) were suspended in a 1% solution of Tween 80 (Sigma-Aldrich, Saint Louis, MO, USA) in water for injections (Baxter, Warszawa, Poland) or 0.9% NaCl. All drugs were injected intraperitoneally (i.p.) 30 min before all seizure models with 1 mL syringes as a single injection, in a volume of 10 mL/kg. The pretreatment time (30 min) before testing for KA-228 and KA-232 was chosen based on the time to peak of maximum anticonvulsant activity of KA-11 from our previous studies.
The tonic–clonic seizures in mice were evoked by an electric stimulus (an alternating current 25 mA, 50 Hz, maximum output voltage 500 V, 0.2 s) generated by a rodent shocker (Hugo Sachs Elektronik, Freiburg, Germany) and delivered via ear-clip electrodes. […] This experimental procedure has been described in detail in our previous studies.
(§2) The ED50 or TD50 values for tested substances in the acute animal models of seizures were calculated using the computer log-probit analysis. Subsequently, the ED50 and TD50 values (±SEM) were statistically analyzed using one-way analysis of variance (ANOVA) followed by the post hoc Dunnett’s test for multiple comparisons. Differences among values were considered statistically significant if p < 0.05. GraphPad Prism version 8 for Windows (GraphPad Software, San Diego, CA, USA) was used as a statistical software program. The results obtained from the acute ivPTZ test and grip strength test were evaluated by a Student’s t test. Fisher’s exact probability test was used to analyze protection from tonic forelimb and hindlimb extension in the ivPTZ test.

Data set [3] addresses T1, Potassium channel (hERG) (Homo sapiens, UniProt Q12809).
T1 construct: host or cells: HEK-293 cells
The data set can be described thus: Radioligand binding, potassium channel (hERG). The following applies: 100 µM; KA-11 value not published before. The method, then:
(§3) Dysfunction of both sodium and calcium ion channels is known to be one of the crucial reasons behind the pathogenesis of seizures. Consequently, these ion channels are molecular targets for several clinically important ASDs such as lacosamide, lamotrigine, carbamazepine, oxcarbazepine and compounds currently under preclinical and clinical studies. Thus, for KA-228 and KA-232, we tested herein their binding profile toward the aforementioned ion channels at concentrations of 10 and 100 µM (Table 3). […] Apart from in vitro studies focused on explaining the mechanism of action, KA-232 was additionally tested for its interaction with the potassium channel (hERG) which is recognized as one of the most important ‘off-targets’ responsible for harmful arrhythmogenic activity. Thus, the interaction of potential drug candidates with hERG must be excluded at an early stage of development.
(§4) Binding studies were carried out commercially in Eurofins Laboratories (Poitiers, France or New Taipei City, Taiwan).
(The hERG channel carries a current that helps repolarise heart muscle cells.)

In data set [4] the target is T2, hERG potassium channel (Homo sapiens, UniProt Q12809).
T2 construct: host or cells: HEK-293 cells
T2 sequence (Q12809 whole entry): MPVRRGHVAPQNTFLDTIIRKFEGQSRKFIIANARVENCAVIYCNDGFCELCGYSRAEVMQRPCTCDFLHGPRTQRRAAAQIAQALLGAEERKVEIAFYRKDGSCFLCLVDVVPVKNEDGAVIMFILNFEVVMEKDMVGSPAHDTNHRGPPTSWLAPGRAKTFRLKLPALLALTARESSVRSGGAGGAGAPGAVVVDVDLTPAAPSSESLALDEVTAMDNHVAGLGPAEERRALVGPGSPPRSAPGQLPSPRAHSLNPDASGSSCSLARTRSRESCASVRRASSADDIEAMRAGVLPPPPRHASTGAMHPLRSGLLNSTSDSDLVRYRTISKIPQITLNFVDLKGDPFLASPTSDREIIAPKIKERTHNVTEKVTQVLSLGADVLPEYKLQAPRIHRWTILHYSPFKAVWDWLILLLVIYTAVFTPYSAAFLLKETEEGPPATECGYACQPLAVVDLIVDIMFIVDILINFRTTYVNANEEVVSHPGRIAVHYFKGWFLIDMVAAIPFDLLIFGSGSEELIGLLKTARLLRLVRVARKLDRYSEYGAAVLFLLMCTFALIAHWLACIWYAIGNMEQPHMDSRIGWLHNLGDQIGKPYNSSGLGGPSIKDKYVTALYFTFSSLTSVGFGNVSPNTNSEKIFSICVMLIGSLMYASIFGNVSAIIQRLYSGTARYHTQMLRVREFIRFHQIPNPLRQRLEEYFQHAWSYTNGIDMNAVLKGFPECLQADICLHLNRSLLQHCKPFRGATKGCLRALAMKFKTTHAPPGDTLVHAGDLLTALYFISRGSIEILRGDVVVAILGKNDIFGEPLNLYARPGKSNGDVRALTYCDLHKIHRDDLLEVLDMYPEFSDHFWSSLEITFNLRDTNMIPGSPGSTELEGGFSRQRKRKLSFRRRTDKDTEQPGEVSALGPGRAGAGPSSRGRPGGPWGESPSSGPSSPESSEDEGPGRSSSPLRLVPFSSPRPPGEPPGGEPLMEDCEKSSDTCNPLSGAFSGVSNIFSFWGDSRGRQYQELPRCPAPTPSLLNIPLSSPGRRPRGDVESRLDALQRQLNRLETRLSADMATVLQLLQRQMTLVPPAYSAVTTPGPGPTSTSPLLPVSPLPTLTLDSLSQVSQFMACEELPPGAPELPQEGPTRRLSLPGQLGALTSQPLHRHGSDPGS
Kind of data set: Radioligand binding, potassium channel (hERG). The settings on record: human, human recombinant HEK-293 cells expressing hERG, KA-11 value not published before, read-out: % Inhibition of Control Specific Binding. The method, then: as §3, §4

For data set [5], the system named is seizure susceptibility in mice. Kind of data set: Timed ivPTZ seizure threshold test. The class given is in vivo. How it is done: as §1
The timed ivPTZ seizure threshold test was carried out according to the method described by Socała et al.. KA-228 and KA-232 were suspended in a 1% solution of Tween 80 and administered i.p. 30 min before the test. In the experiment with KA-232, two separate control groups were used because the effects of KA-232 at a dose of 50 and 100 mg/kg were determined on different days.
as §2
Figure 7 Effects of KA-11, KA-228 and KA-232 on the threshold for the first myoclonic twitch (A), generalized clonus (B) and forelimb tonus (C) in the ivPTZ test in mice. KA-228 and KA-232 were administered i.p., 30 min before seizure induction. Control animals received vehicle. Data are presented as means ± SD (mg/kg PTZ; n = 9–14 animals; the n value varies between groups because some animals were excluded from the study due to unsuccessful catheterization of the vein). The statistical significance for KA-228 and KA-232 was evaluated by a Student’s t test. Data for KA-11 were used from Socała et al. and re-analyzed using one-way ANOVA followed by Dunnett’s post hoc test. * p < 0.05, ** p < 0.01, *** p < 0.001, **** p < 0.0001 vs. the vehicle-treated group (GraphPad Prism 8).

Data set [6] can be described thus: in vitro. The following applies: PAMPA.
Protocol: Pre-coated PAMPA Plate System Gentest™ was purchased from Corning (Tewksbury, MA, USA). […] The luminescent signal and the absorbances were measured by using a microplate reader EnSpire PerkinElmer (Waltham, MA, USA). The LC/MS/MS analyses used in PAMPA and metabolic stability assays were obtained on Waters ACQUITY™ TQD system (Waters, Milford, CT, USA).
Data set [7] has as its target GABAA (α1,β2,γ2) (agonist radioligand) (Homo sapiens, UniProt P14867+P47870). Kind of data set: Radioligand binding, GABAA.
Data set [8] has as its system neuroblastoma SH-SY5Y. The data set can be described thus: Neurotoxicity, SH-SY5Y cell viability. The class given is cell-based, human. The source says:
(§5) The assays and protocols used for evaluating the KA-232 ADME-Tox parameters were similar to those described previously for compound KA-11 [6].
(§6) Figure 9 The effect of KA-232 and the reference drug ketoconazole (KE) on CYP3A4 activity (A). The effect of KA-232 and the reference drug quinidine (QD) on CYP2D6 activity (B). The effect of KA-232 and the reference cytostatic drug doxorubicin (DX) on the HepG2 cell line (C) and the SH-SY5Y cell line (D) viability. Statistical significance (* p < 0.05, **** p < 0.0001) was analyzed by Graph Pad Prism 8 software using one-way ANOVA and Bonferroni’s Multiple Comparison Post Test.

For data set [9], the system named is Na^+ channel (site 2). The data set can be described thus: Radioligand binding, Na+ channel (site 2). The following applies: 10 µM. Set-up: species or system rat. How it is done:
as §3, §4

For data set [10], the target named is T3, CYP3A4 (Homo sapiens, UniProt P08684).
T3 construct: purchased Promega, Madison, WI, USA
T3 sequence (P08684 whole entry): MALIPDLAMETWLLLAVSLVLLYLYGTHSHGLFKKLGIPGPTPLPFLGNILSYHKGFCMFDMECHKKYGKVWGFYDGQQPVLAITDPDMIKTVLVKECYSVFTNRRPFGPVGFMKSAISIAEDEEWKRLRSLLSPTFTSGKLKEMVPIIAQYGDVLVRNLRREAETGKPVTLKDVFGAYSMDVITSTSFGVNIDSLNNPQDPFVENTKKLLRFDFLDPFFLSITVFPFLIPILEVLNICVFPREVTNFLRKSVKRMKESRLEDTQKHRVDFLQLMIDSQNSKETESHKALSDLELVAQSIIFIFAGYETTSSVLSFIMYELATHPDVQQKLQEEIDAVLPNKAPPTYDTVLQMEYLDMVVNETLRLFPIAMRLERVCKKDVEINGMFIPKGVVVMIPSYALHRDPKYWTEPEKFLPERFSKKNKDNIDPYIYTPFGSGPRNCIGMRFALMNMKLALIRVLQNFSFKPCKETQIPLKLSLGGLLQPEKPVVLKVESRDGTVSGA
Kind of data set: CYP3A4 P450-Glo assay. The class given is in vitro ADME. The following applies: 10 µM.
From the text: as §5, §6

Setting [11] is: 50 mg/kg i.p., 30 min before ivPTZ.

The structures appear in SMILES notation.

GABAA (α1,β2,γ2) (agonist radioligand), sequence (P14867 28-456): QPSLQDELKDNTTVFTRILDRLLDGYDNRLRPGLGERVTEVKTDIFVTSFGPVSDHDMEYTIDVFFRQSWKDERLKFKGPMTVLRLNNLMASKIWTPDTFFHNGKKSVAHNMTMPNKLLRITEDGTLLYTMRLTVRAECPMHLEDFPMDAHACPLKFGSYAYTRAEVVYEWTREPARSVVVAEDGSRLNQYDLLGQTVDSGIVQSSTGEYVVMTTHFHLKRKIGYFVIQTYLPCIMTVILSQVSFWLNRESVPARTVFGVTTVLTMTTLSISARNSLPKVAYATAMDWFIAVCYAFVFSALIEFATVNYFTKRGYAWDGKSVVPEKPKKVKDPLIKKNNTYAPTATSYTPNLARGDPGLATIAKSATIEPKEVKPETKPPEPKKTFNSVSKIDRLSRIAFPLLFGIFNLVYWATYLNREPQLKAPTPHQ
GABAA (α1,β2,γ2) (agonist radioligand), sequence (P47870 25-512 limits assumed): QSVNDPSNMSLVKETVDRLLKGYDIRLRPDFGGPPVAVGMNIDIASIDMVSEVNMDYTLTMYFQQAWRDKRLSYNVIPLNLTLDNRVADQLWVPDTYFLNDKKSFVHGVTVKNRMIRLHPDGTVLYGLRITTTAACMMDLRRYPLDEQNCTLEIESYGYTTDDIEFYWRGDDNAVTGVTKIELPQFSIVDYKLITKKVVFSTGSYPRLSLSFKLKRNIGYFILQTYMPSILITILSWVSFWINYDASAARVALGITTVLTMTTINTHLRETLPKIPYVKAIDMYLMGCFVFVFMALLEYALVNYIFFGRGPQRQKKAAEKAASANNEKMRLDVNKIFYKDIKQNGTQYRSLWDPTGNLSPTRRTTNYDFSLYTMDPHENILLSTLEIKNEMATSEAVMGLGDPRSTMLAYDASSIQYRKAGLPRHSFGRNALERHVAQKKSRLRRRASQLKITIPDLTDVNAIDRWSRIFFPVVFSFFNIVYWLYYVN
GABAA (α1,β2,γ2) (agonist radioligand), sequence (P18507 40-475 partner): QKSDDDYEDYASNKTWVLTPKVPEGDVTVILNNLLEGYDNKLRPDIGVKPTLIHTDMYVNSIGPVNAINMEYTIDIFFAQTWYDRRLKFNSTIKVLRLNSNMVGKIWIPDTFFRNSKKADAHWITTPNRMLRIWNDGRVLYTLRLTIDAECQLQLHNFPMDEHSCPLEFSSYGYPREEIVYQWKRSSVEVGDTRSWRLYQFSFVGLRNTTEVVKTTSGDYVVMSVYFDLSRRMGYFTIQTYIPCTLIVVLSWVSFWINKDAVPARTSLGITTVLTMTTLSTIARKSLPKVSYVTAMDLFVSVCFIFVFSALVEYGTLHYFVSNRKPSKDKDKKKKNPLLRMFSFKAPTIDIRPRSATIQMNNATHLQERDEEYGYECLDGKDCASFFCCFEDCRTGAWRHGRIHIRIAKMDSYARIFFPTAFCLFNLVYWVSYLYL
T1 sequence (Q12809 whole entry): as the sequence (Q12809 whole entry) above

As to `CC(C(=O)N1CCN(c2cccc(C(F)(F)F)c2)CC1)N1C(=O)CC(N(C)C)C1=O.Cl` (stereo not shown) [KA-232, 3-(Dimethylamino)-1-(1-oxo-1-(4-(3-(trifluoromethyl)phenyl)piperazin-1-yl)propan-2-yl)pyrrolidine-2,5-dione hydrochloride], the “stability in physiological buffer” value in data set [1] is on record as “some products of KA-232 degradation at the pyrrolidine-2,5-dione moiety were observed”. Moreover, the ED50 (commonly the midpoint of the dose-response relation) in data set [2] (Mus musculus, ip, 30 min before test, read-out: ED50 MES ± SD) was 61.8 ± 26.9 mg/kg. Besides, the “TI (TD50/ED50), MES” value in data set [2] (i.p.) was 2.63. In addition, the “% Inhibition of Control Specific Binding” value in data set [3] is on record as “did not interact”. Moreover, the inhibition (as a rule, the drop in the measured response relative to a control, in per cent) at 60 min, 100 µM in [4] is 18.3%. In [5] (setting [11]), the “effect on threshold for forelimb tonus” value is “did not significantly affect”, the “effect on threshold for generalized clonus” value is on record as “did not significantly affect” and the “effect on threshold for the first myoclonic twitch” value is on record as “did not significantly affect”. Moreover, the “mice in which hindlimb tonus did not occur” value in [5] (50 mg/kg i.p., p < 0.01 vs. control) is recorded as 5 out of 9. Besides, the “effect on threshold for clonic seizures” value in [5] (100 mg/kg i.p., p < 0.0001) is reported as “slightly raised”. Further, the “effect on threshold for myoclonic seizures” value in data set [5] (100 mg/kg i.p., p < 0.001) is “slightly raised”. Besides, in data set [5] (100 mg/kg i.p., p < 0.01 vs. control), the “mice in which forelimb tonus was completely abolished” value is recorded as 7 out of 11. Besides, in data set [6], the apparent permeability coefficient (Papp) – broadly, a coefficient for how fast a substance crosses the barrier – at 5 h was 10.2 ± 1.65 ×10⁻⁶ cm/s. For the same compound, the “% Inhibition of Control Specific Binding” value in data set [7] (10 µM) is recorded as “did not interact”. Besides, in data set [7] (read-out: % Inhibition of Control Specific Binding), the inhibition at 10 µM was -6.7%. The “SH-SY5Y viability (% of control ± SD)” value in [8] (10 µM) is 99.44 ± 5.89 % of control. In addition, the “neurotoxic effect on SH-SY5Y cell line” value in data set [8] (all used doses) is “no neurotoxic effect”. In addition, in [9], the “% Inhibition of Control Specific Binding” value was 3.8%. In data set [10], the “CYP3A4 activity (% of control ± SD)” value is 86.77 ± 5.71 % of control.
